One data set deals with KB-L30 (KB-resistant). Put plainly: IC50 against human cancer cell lines: KB-L30. To be noted: read-out: IC50 ± SD against human cancer cell lines.
The test system of the next data set is H9 (T cell lymphoma). The data set is described as follows: IC50 against human cancer cell lines: H9. To be noted: read-out: IC50 ± SD against human cancer cell lines.
The next data set deals with HDAC2 (Homo sapiens, UniProt Q92769). Put plainly: Deacetylase enzyme assay (fluorescence release): HDAC2. To be noted: 24-hour study. Format: biochemical. The text has this:
Proteins from cells were extracted and subjected to the western blotting analysis. β-Actin was used as an internal control. The deacetylase enzyme assay was based on a homogeneous fluorescence release assay. […] After fluorophore from the deacetylated substrates, fluorescent signal was detected.

Data set [1] concerns MDA-MB-231 (breast carcinoma). Put plainly: IC50 against human cancer cell lines: MDA-MB-231. The settings on record: MDA-MB-231, read-out: IC50 ± SD against human cancer cell lines.
Procedure: (§1) More specifically, the IC50 values of test compounds were determined by carrying out a fluorimetric histone deacetylase assay following the manufacturer's instructions. For a pan-HDAC assay, HeLa nuclear extracts were used as a source of histone deacetylase (BioVision Inc.). Histone deacetylase isomer inhibition assays were conducted using purified recombinant histone deacetylase proteins of the various isomers (BPS Bioscience Inc.). Reactions were performed in 0.1 mol/L KCl, 20 mmol/L HEPES/NaOH at pH 7.9, 20% glycerol, 0.2 mmol/L DTA, 0.5 mmol/L DTT, and 0.5 mmol/L phenylmethylsulfonylfluoride. […] Reactions were carried out in triplicate for each test compound. Each point represented the mean±SD of replicates.
A further data set deals with WI-38 (normal: lung). The data set is described as follows: IC50 against cell lines: WI-38. To be noted: Homo sapiens, WI-38, read-out: IC50 ± SD against human cancer cell lines.
The next data set has as its system KB-VIN10 (KB resistant). The data set is described as follows: IC50 against human cancer cell lines: KB-VIN10. To be noted: Homo sapiens, KB-VIN10, read-out: IC50 ± SD against human cancer cell lines.
The test system of data set [2] is K2 (normal: keratinocyte). The data set is described as follows: IC50 against cell lines: K2. The settings on record: Homo sapiens, read-out: IC50 ± SD against human cancer cell lines.
The subject of another data set is KB-7D (KB resistant). The data set is described as follows: IC50 against human cancer cell lines: KB-7D. The settings on record: KB7D, read-out: IC50 ± SD against human cancer cell lines.
The subject of data set [3] is K6 (normal: keratinocyte). Put plainly: IC50 against cell lines: K6. The settings on record: Homo sapiens, read-out: IC50 ± SD against human cancer cell lines.
Data set [4] concerns Detroit551 (normal: fibroblast). The data set is described as follows: IC50 against cell lines: Detroit551. To be noted: Homo sapiens, Detroit 551, read-out: IC50 ± SD against human cancer cell lines.
The test system of data set [5] is HUVEC (normal: endothelial). Put plainly: IC50 against cell lines: HUVEC. The settings on record: Homo sapiens, read-out: IC50 ± SD against human cancer cell lines.
Data set [6] deals with LNCaP-104 (prostate carcinoma). The data set is described as follows: IC50 against human cancer cell lines: LNCaP-104. To be noted: read-out: IC50 ± SD against human cancer cell lines.
Data set [7] concerns human glioblastoma (U87-MG-LucNeo cells) xenograft. The data set is described as follows: In vivo antitumor activity against human glioblastoma xenograft tumor: survival. The settings on record: intracranial U87 xenograft, Compound 7 50-100 mg/kg p.o.; TMZ 50 mg/kg p.o. (A xenograft is tissue or cells of one species grown in another, often human tumour cells in immunodeficient mice.)
Source text: Male athymic nude mice at 5-6 weeks old were obtained from BioLasco (Taiwan) and maintained in a specific-pathogen-free facility. All experimental procedures were approved by the Institute of Animal Care and Use Committee of Taipei Medical University. Each nude mouse was anesthetized with an i.p. injection of xylazine (Sigma) and zolazepam (Zoletil 50, Virbac), and then secured in a stereotaxic frame.

The subject of another data set is HSC-3 (oral carcinoma). The data set is described as follows: IC50 in human cancer cell lines (inhibiting HDAC): HSC-3. The settings on record: HSC-3, read-out: IC50, inhibiting HDAC in human cancer cell lines.
The next data set relates to MCF-7 (breast carcinoma). The data set is described as follows: IC50 in human cancer cell lines (inhibiting HDAC): MCF-7. The settings on record: MCF7, read-out: IC50, inhibiting HDAC in human cancer cell lines.
Data set [8] relates to HDACs (p21, p27, histone, and α-tubulin acetylation) in the PC3 xenograft model. Put plainly: In vivo HDAC inhibitory assay, PC3 xenograft. To be noted: 25 mg/kg, oral, PC3 xenograft mice. As for the experimental part: Subcutaneous inoculation of 5×10^6 PC3 cells in specific pathogen-free male athymic mice (strain BALB/cAnN.Cg-Foxn1nu/CrlNarl) from the National Laboratory Animal Center, Taiwan, was applied. The mice were subsequently fed under specific pathogen-free conditions and provided with sterile water and food. […] Tumor samples were obtained and frozen in liquid nitrogen before storage in −80° C. Tumor proteins were extracted and subjected to the Western blotting analysis. β-Actin was used as an internal control.

Data set [9] relates to human colorectal HCT116 xenograft. The data set is described as follows: In vivo antitumor activity assay, HCT116 xenograft. To be noted: for inhibition of human colorectal HCT116 xenograft growth: day 22 after the first dosing. The source says: The antitumor effect of the two test compounds were examined in mice xenografted with human PC3 prostate cancer cells or HCT116 colorectal cells.
Five million PC3 cells were subcutaneously inoculated into specific pathogen-free male athymic mice (strain BALB/cAnN.Cg-Foxn1nu/CrlNarl) from the National Laboratory Animal Center, Taiwan. Mice were subsequently fed under specific pathogen-free conditions and provided with sterile water and food. When the tumor volume reached 150 to 200 mm^3, mice were assigned to groups randomly and treated with vehicle control or Compound 7 or 5b at 25/50/100 mg/kg. The compound was administered once a day, 5 days/week for 2 weeks (n=6) by oral administration. Tumor volume and body weight change were measured twice a week. At the end of the experiments (day 25 after first dosing), animals were euthanized in a CO2-containing chamber, and the tumors were collected and fixed in formaldehyde. The terminal deoxynucleotidyl transferase-mediated dUTP nick end labeling assay (TUNEL) was conducted for apoptosis detection. Tumor tissue sections were analyzed using a FITC In Situ Cell death detection kit (Roche) and fluorescence microscopy. Tissue treated with DNase was used as the positive control. Green fluorescence labeled nucleus indicates the induction of DNA fragmentation.

Data set [10] deals with human glioblastoma (U87-MG-LucNeo cells) xenograft. Put plainly: Orthotopic tumor size measurement (bioluminescence imaging). Format: in vivo, mice. To be noted: Compound 7 25 mg/kg versus SAHA 150 mg/kg and TMZ 25 mg/kg. The text has this:
Another parallel set of xenografted nude mice treated with drug or vehicle treatment as described above were used in this experiment.

In data set [11] the test system is MKN-45 (gastric carcinoma). Put plainly: IC50 in human cancer cell lines (inhibiting HDAC): MKN-45. To be noted: MKN-45, read-out: IC50, inhibiting HDAC in human cancer cell lines.
Procedure: as §1
In a further data set the test system is C6 glioma cell line. The data set is described as follows: Cell death in C6 glioma in vitro (LDH assay). Format: cell-based. The settings on record: rat C6 glioma, 30 uM, after 3 days. As for the experimental part: Cell death was analyzed by a lactate dehydrogenase (LDH) assay. The culture medium was centrifuged after the experiment and the activity of LDH released into culture media was detected with a LDH cytotoxicity detection kit (Roche). The percentage of cytotoxicity was determined by the equation: [(Experimental group−Control group)/(Triton-100-treated group (100% maximal death)−Control group)]×100%.

Another data set deals with TSGH (gastric carcinoma). Put plainly: IC50 in human cancer cell lines (inhibiting HDAC): TSGH. To be noted: read-out: IC50, inhibiting HDAC in human cancer cell lines.

For orientation: IC50 means the point on the concentration scale where inhibition reaches its midpoint.

Sequence of HDAC2 (Q92769 whole entry, species assumed): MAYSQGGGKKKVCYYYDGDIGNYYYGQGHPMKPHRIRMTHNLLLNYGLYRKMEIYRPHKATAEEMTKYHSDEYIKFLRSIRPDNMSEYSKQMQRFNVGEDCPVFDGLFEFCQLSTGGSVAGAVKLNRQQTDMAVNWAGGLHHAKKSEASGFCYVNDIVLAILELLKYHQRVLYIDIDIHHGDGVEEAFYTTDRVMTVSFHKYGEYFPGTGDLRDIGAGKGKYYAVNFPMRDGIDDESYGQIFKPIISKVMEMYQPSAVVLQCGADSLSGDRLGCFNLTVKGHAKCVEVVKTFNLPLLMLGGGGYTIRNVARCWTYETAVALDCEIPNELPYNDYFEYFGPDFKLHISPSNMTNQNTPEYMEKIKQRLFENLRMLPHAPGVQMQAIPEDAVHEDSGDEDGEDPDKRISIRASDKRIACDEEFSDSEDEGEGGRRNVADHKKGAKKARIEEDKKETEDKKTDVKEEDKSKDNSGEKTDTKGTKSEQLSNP
Procedure for KB-7D (KB resistant): as §1
Procedure for KB-L30 (KB-resistant): as §1
Procedure for TSGH (gastric carcinoma): as §1

`COc1ccc(S(=O)(=O)N2CCc3cc(/C=C/C(=O)NO)cnc32)cc1` [Compound 5b, (E)-N-hydroxy-3-(1-(4-methoxyphenylsulfonyl)-2,3-dihydro-1H-pyrrolo[2,3-b]pyridin-5-yl)acrylamide]: the IC50 in the data set on KB-L30 (KB-resistant) turned out to be 175 ± 26.8 nM; with H9 (T cell lymphoma) it was 55.4 ± 7.8 nM; in data set [1] it was 247 ± 9.3 nM; in the data set on WI-38 (normal: lung), 272 ± 52.3 nM; in the data set on KB-VIN10 (KB resistant), 85 nM; in data set [2] it was 447 ± 37.3 nM. The IC50 is 139 ± 26.8 nM in the data set with KB-7D (KB resistant); 545 ± 39 nM in data set [3]; 707 ± 64.7 nM in data set [4]; 62 ± 2.8 nM in data set [5]; 180 ± 70 nM in data set [6]. Further, the “concentration inducing inhibition of HDAC2” value at HDAC2 was not above 50 nM.

In the case of `O=C(/C=C/c1cccc(S(=O)(=O)n2ccc3cccnc32)c1)NO` [Compound 7, (E)-3-(3-(1H-Pyrrolo[2,3-b]pyridin-1-ylsulfonyl)phenyl)-N-hydroxyacrylamide], the survival entry in [7] is given as “extended survival longer than TMZ”. Moreover, the IC50 with HSC-3 (oral carcinoma) is 660 ± 120 nM; with MCF-7 (breast carcinoma), 1330 ± 360 nM; in data set [11] it was 2510 ± 810 nM; with TSGH (gastric carcinoma) it was 2100 ± 110 nM. Besides, the “inhibiting HDACs in vivo (p21, p27, histone, and α-tubulin acetylation)” value in data set [8] is “effective”. Further, the “inhibition of human colorectal HCT116 xenograft growth” value in [9] (25 mg/kg), in data set [9] (50 mg/kg) and in [9] (100 mg/kg) was 50-60% each time. Also, the body weight change result in data set [9] (HCT116 xenograft mice, 25, 50 and 100 mg/kg) is recorded as “without causing much body weight change”. The “tumor size (bioluminescence imaging)” value in [10] is listed as “decreased the tumor size more than a higher dose of SAHA (150 mg/kg) or the same dose of TMZ (25 mg/kg)”. In addition, in the data set with C6 glioma cell line, the “induction of cell death (LDH)” value was “about 100%”.

Source of the values: US10246455B2, “Histone deacetylase inhibitors” (Taipei Medical University, priority 2014, dated 2019).
